Target: benzodiazepine site of the GABAA receptor
Assay: Ligand binding assay (3H-Ro15-1788 displacement, purified rat cortical membranes)
Details: previously determined; used in the Cheng-Prusoff equation; read-out: Kd, binding dissociation constant of the radioligand

Structure (SMILES): CCOC(=O)c1ncn2c1CN(C)C(=O)c1cc(F)ccc1-2 [^3H-Ro15-1788]
- Kd: 1 nM

— US20080167324A1, “Thiazolymethyl and Oxazolylmethyl Heteroaryl Derivatives” (priority 2005, published 2008)
